Measurements as given in ChEMBL document CHEMBL2412968, “Tetrazole-based deoxyamodiaquines: synthesis, ADME/PK profiling and pharmacological evaluation as potential antimalarial agents” (Bioorg Med Chem, 2013).
≈ marks a conversion by molar mass, not a printed value.

Columns and labels:
[1] = system: Plasmodium falciparum; test: Antiplasmodial activity chloroquine-resistant Plasmodium falciparum K1 infected in human A+ erythrocytes assessed as reduction of [3H]hypoxanthine incorporation after 24 hrs by scintillation counting; assay type: functional, organism-based
[2] = system: Plasmodium falciparum; test: Antiplasmodial activity chloroquine-resistant Plasmodium falciparum W2 using YOYO-1 staining after 48 hrs by FACS analysis; assay type: functional, organism-based; conditions: W2, 48 h
[3] = system: Plasmodium falciparum; test: Antiplasmodial activity chloroquine-sensitive Plasmodium falciparum 3D7 infected in human A+ erythrocytes assessed as reduction of [3H]hypoxanthine incorporation after 24 hrs by scintillation counting; assay type: functional, organism-based
[4] = physchem; conditions: phosphate buffered saline, pH 7.4
[5] = physchem; conditions: 0.01 M HCl, pH 2
[6] = system: CHO; test: Cytotoxicity against CHO cells by MTT assay; assay type: cell-based; conditions: Cricetulus griseus

| SMILES | IC50 [1] [µM] | IC50 [2] [µM] | IC50 [3] [µM] | solubility kinetic at 2 h [4] [µM] | solubility kinetic at 2 h [5] [µM] | IC50 [6] [µM] |
| --- | --- | --- | --- | --- | --- | --- |
| Clc1ccc2c(Nc3cccc(C(c4nnnn4CCN4CCOCC4)N4CCCC4)c3)ccnc2c1 (stereo not drawn) | 0.31 | 3.39 | 0.22 | – | – | – |
| CN(C)C(c1ccccc1Nc1ccnc2cc(Cl)ccc12)c1nnnn1C(C)(C)C (stereo not drawn) | 3.5 | 3.39 | 3.5 | – | – | – |
| CN(C)C(c1ccc(Nc2ccnc3cc(Cl)ccc23)cc1)c1nnnn1C(C)(C)C (stereo not drawn) | 0.012 | 0.04 | 0.012 | – | – | – |
| CN(C)C(c1cccc(Nc2ccnc3cc(Cl)ccc23)c1)c1nnn[nH]1 (stereo not drawn) | 2.98 | 1.17 | 0.487 | 72.6 (≈ 27.6 µg/mL) | > 200 | – |
| CCN(CC)C(c1cccc(Nc2ccnc3cc(Cl)ccc23)c1)c1nnn[nH]1 (stereo not drawn) | 0.054 | 0.475 | 0.164 | 149 (≈ 60.8 µg/mL) | > 200 | – |
| Clc1ccc2c(Nc3cccc(C(c4nnn[nH]4)N4CCCC4)c3)ccnc2c1 (stereo not drawn) | 0.049 | 0.181 | 1.1 | 150 (≈ 60.9 µg/mL) | > 200 | – |
| Clc1ccc2c(Nc3cccc(C(c4nnn[nH]4)N4CCCCC4)c3)ccnc2c1 (stereo not drawn) | 1.26 | 0.487 | 0.286 | 122 (≈ 51.2 µg/mL) | > 200 | – |
| Clc1ccc2c(Nc3cccc(C(c4nnn[nH]4)N4CCOCC4)c3)ccnc2c1 (stereo not drawn) | 1.97 | 1.39 | 2.07 | – | – | – |
| CC[C@H]1CN2CCc3cc(OC)c(OC)cc3[C@@H]2C[C@@H]1C[C@H]1NCCc2cc(OC)c(OC)cc21 [EMETINE] | – | – | – | – | – | 0.129 |
